Experimental data reported in US11083732B2, “Use of negative modulators of GABA receptors containing alpha5 subunits as fast acting antidepressants” (University of Maryland, Baltimore, priority 2014, dated 2021).
Entries after “also recorded” stand apart in the source; their conditions may differ.

Tests used:
[1] = system: GluA1; experiment: Western blotting of GluA1 in SLM tissue of hippocampal area CA1; assay type: in vivo, rat
Description: Western blotting. SLM tissue punches (1 mm diameter) were dissected from area CA1 in hippocampal slices and pooled (3-4 punches/sample). Membranes were probed with antibodies directed against GluA1 (Millipore Bioscience Research Reagents) and β-actin (Cell Signaling Technology). Levels of proteins are expressed as the ratio of intensity normalized to β-actin intensity, as done previously (Kallarackal et al., 2013).
SLM tissue was harvested from slices taken from unstressed rats, rats subjected to ten days of CRS and given a vehicle injection 24 hrs earlier, and rats subjected to ten days of CRS and given an injection of L-655,708 24 hrs earlier (0.7 mg/kg, i.p.). These were the same rats used for FIG. 6.

[2] = system: str. pyramidale of area CA1 and NAc shell; experiment: In vivo field potential recording of oscillatory activity; parameters: species or system rat
Protocol: A1. A 60 min period of continuous recording of spontaneous field potential activity is made under dim illumination. Rats are then injected with either L-665,708 or vehicle, and placed back in the tube for an additional 60-90 min of recording. Discrete fast Fourier transforms are made on 60s-long recording segments for preparation of spectrograms. Oscillation power (area under the curve) is integrated for different frequency bandwidths for power spectral density plots (Θ=3-7 Hz; α=8-12 Hz; β=13-29 Hz; γ=30-80 Hz) (Buhl et al., 1998; Raver et al., 2013). Just as with ketamine (e.g. Kittleberger et al., 2012; Lazarewicz et al., 2010; Hinman et al., 2013), in specific embodiments increases in power are observed by pairwise comparison of spectra before and after drug injection. Initial studies are consistent with this consideration (FIG. 2).
Electrophysiology in vivo. Tungsten microelectrodes (tip impedances=0.5M,Ω) are implanted stereotaxically in str. pyramidale of area CA 1, layer II of the EC, layer V of the medial PFC, or the shell of the NAc and secured to the skull with cement. After implantation, rats will be habituated to stay still under light restraint (a metal pole connecting the headstage to a rigid arm) in a narrow tube. On-going electrical activity will be recorded in the absence of anesthesia. Field potentials will be analyzed using Spike2 software.

CCOC(=O)c1ncn2c1[C@@H]1CCCN1C(=O)c1cc(OC)ccc1-2 [L-655,708, ethyl (13aS)-7-methoxy-9-oxo-11, 12,13,13 a-terahydro-9H-imidazo[1,5-a]pyrrolo[2,1-c] [1,4]benzodiazepine-1-carboxylate]
phosphorylation of S831 of GluA1 in SLM ([1]; CRS rats, 24 hours after injection): increased
GluA1 protein level in SLM (normalized to β-actin) ([1]; CRS rats, L-655,708 24 hrs earlier): not significantly different than levels in unstressed controls; also recorded: increased
phosphorylation of S831 and total GluA1 expression in SLM ([1]; unstressed animals, 24 hours after injection): no effect
persistence of increase in oscillatory activity ([2]; CA1 and NAc shell): persisted for more than one hour
oscillatory activity (theta and beta frequency bands) ([2]; str. pyramidale of area CA1 and NAc shell, after injection): rapid increase
